Assay results as given in patent publication US20240246902A1, “PRODRUGS OF 6-DIAZO-5-OXO-L-NORLEUCINE” (THE JOHNS HOPKINS UNIVERSITY, priority 2021, published 2024).
≈ marks a conversion by molar mass, not a printed value. Read-outs that look alike come from different tables or passages of the source.

Key:
[1] = Plasma stability, plasma from CES1KO mice; conditions: CES1KO = Mouse Plasma from CES1KO mice
[2] = Efflux
[3] = Solubility
[4] = Plasma stability, mouse plasma; conditions: MP = Mouse Plasma
[5] = Plasma stability, human plasma; type: in vitro ADME; conditions: HP = Human Plasma
[6] = Metabolic stability in swine jejunum (gut) tissue homogenate; type: in vitro ADME; conditions: prodrug 20 μM, 37° C.
In short: (§1)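 Freshly collected swine jejunum or liver was sonicated in 9 volumes of 0.1 M potassium phosphate buffer on ice. Prodrugs at 20 μM (0.2% DMSO, triplicate) were incubated at 37° C for 0, 30 and 60 min. Samples were quenched in methanol with losartan internal standard, and prodrug disappearance was followed by LC-MS/MS using analyte/IS peak area ratios.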

[7] = Plasma stability, rat plasma; type: in vitro ADME; conditions: RP = Rat Plasma
[8] = Metabolic stability in swine liver tissue homogenate; type: in vitro ADME; conditions: prodrug 20 μM, 37° C.
In short: as §1

[9] = Plasma stability, pig plasma; type: in vitro ADME; conditions: PP = Pig Plasma
[10] = test system: P493B lymphoma cells; assay: Human tumor cell-to-plasma partitioning assay (DON release in P493B cells); conditions: 10 million cells/mL, prodrug 20 μM, 37° C., 1 h
Experimental: The human plasma-to-tumor cell partitioning assays were conducted using P493B lymphoma following our previously reported method. […] In brief, cells were cultured in 150 cm^2 T-flasks (Falcon™, USA, Cat. #08-772-48) with RPMI Medium 1640 medium 1× containing L-glutamine (RPMI-1640, Corning®, USA, Cat. #10-040-CV), supplemented with 10% v/v Fetal Bovine Serum (FBS, Gibco™, USA, Cat. #26140079), and 1% v/v antimycotic/antibiotic (Gibco™, USA, Cat. #15240062). Cells were grown at 37° C., in a humidified atmosphere with 5% CO2. Cells were harvested after achieving>80% confluency and centrifuged at 200×g for 5 min at 25° C. The obtained cell pellet was re-suspended in 20 mL of Dulbecco's phosphate-buffered saline (DPBS, Gibco™, USA, Cat. #14-190-144) maintained at 37° C. and cell count was determined using an automated cell counter (Bio-Rad, USA). […] Both plasma and cell pellet fractions were analyzed for intact prodrug and DON levels.
Frozen plasma and cell pellets were thawed on wet ice. […] After centrifugation, 100 μL of the supernatant was diluted with 400 μL of water, and analyzed in LC-MS/MS. […]
The underivatized supernatants/derivatized samples were analyzed on a LC-MS/MS system consisting of Dionex ultra high-performance LC system hyphenated with Q Exactive Focus Orbitrap mass spectrometer (Thermo Fisher Scientific Inc., Waltham, MA). […]

[11] = not told
[12] = physchem
[13] = mouse, 1 h

| SMILES | Plasma Stability (% remaining at 60 min) [1] | Efflux [2] | solubility [3] [µg/mL] | Plasma Stability (% remaining at 60 min) [4] | Plasma Stability (% remaining at 60 min) [5] | Gut Stability (% remaining at 60 min) [6] [%] | Plasma Stability (% remaining at 60 min) [7] | Liver stability (% remaining at 60 min) [8] [%] | Plasma Stability (% remaining at 60 min) [9] | P493B cells (DON release; nmol/g) [10] | Efflux [11] | solubility [12] [µg/mL] | Plasma Stability (% remaining at 60 min) [13] |
| --- | --- | --- | --- | --- | --- | --- | --- | --- | --- | --- | --- | --- | --- |
| CC(=O)N[C@@H](Cc1c[nH]c2ccccc12)C(=O)N[C@@H](CCC(=O)C=[N+]=[N-])C(=O)OC(C)C [13′, reference compound] | 94 ± 1 (ces1KO) % | 23 | 240 (≈ 0.544 mM) | 0 ± 0 (MP) % | 96 ± 3 (HP) % | 11 ± 1 | – | – | – | – | – | – | – |
| CC(=O)N[C@@H](CCC(=O)C=[N+]=[N-])C(=O)OC(C)C [Compound 5a, Isopropyl (S)-2-acetamido-6-diazo-5-oxohexanoate] | 89 ± 2 (ces1KO) % | – | – | – | – | 76 ± 0 | 0 ± 0 (RP) % | 23 ± 0 | 105 ± 1 (PP) % | – | – | – | – |
| CN(C)CC(=O)N[C@@H](CCC(=O)C=[N+]=[N-])C(=O)OC(C)(C)C [Compound 5h, tert-Butyl (S)-6-diazo-2-(2-(dimethylamino)acetamido)-5-oxohexanoate] | – | 2 | – | – | – | 100 ± 1 | – | 93 ± 1 | – | Undetectable | – | – | – |
| CN(C)CC(=O)N[C@@H](Cc1c[nH]c2ccccc12)C(=O)N[C@@H](CCC(=O)C=[N+]=[N-])C(=O)OC(C)(C)C [Compound 11b, tert-Butyl (S)-6-diazo-2-((S)-2-(2-(dimethylamino)acetamido)-3-(1H-indol-3-yl)propanamido)-5-oxohexanoate] | – | 33 | 170 (≈ 0.341 mM) | 68 ± 2 (MP) % | 101 ± 0 (HP) % | 79 ± 4 | 3 ± 0 (RP) % | 80 ± 3 | – | – | – | – | – |
| CC(C)(C)OC(=O)[C@H](CCC(=O)C=[N+]=[N-])NC(=O)[C@H](Cc1c[nH]c2ccccc12)NC(=O)C12CCN(CC1)CC2 [Compound 11d, tert-Butyl (S)-2-((S)-3-(1H-indol-3-yl)-2-(quinuclidine-4-carboxamido)propanamido)-6-diazo-5-oxohexanoate] | – | – | – | – | – | – | – | – | – | – | 2 | 4300 (≈ 7.81 mM) | – |
| Cn1cc(C[C@H](NC(=O)C23CCN(CC2)CC3)C(=O)N[C@@H](CCC(=O)C=[N+]=[N-])C(=O)OC(C)(C)C)c2ccccc21 [Compound 12b, tert-Butyl (S)-6-diazo-2-((S)-3-(1-methyl-1H-indol-3-yl)-2-(quinuclidine-4-carboxamido)propanamido)-5-oxohexanoate] | – | – | – | – | – | – | – | – | – | – | 3.48 | 8800 (≈ 15.6 mM) | 92 ± 1 (MP) % |
| CN(C)CC(=O)NCC(=O)N[C@@H](CCC(=O)C=[N+]=[N-])C(=O)OC(C)(C)C [Compound 14b, tert-Butyl (S)-6-diazo-2-(2-(2-(dimethylamino)acetamido)acetamido)-5-oxohexanoate] | – | 33 | ~10000 (≈ 27.1 mM) | 73 ± 2 (MP) % | 100 ± 5 (HP) % | 99 ± 2 | – | 90 ± 0 | – | – | – | – | – |
| CN(C)CC(=O)N[C@@H](Cc1cccnc1)C(=O)N[C@@H](CCC(=O)C=[N+]=[N-])C(=O)OC(C)(C)C [Compound 17b, tert-Butyl (S)-6-diazo-2-((S)-2-(2-(dimethylamino)acetamido)-3-(pyridin-3-yl)propanamido)-5-oxohexanoate] | – | 57 | ~10000 (≈ 21.7 mM) | 82 ± 6 (MP) % | 96 ± 3 (HP) % | 98 ± 1 | 33 ± 2 (RP) % | 91 ± 1 | – | – | – | – | – |
| CC(=O)N[C@@H](Cc1c[nH]c2ccccc12)C(=O)N[C@@H](CCC(=O)C=[N+]=[N-])C(N)=O [Compound 31a, (S)-2-((S)-2-Acetamido-3-(1H-indol-3-yl)propanamido)-6-diazo-5-oxohexanamide] | – | 1 | – | 6 ± 1 (MP % | 100 ± 2 (HP) % | 79 ± 7 | – | 58 ± 2 | – | – | – | – | – |
